Several values for one entry are separate records, joined by “and”; a condition that tells them apart may be missing. Equal values may be shown once.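 Assay format: 96-well plates, 48-hour exposure. Abbreviation: GI50, concentration required for 50% inhibition of growth. TGI: concentration producing complete growth inhibition.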 Where a SMILES comes first, the peptide text is derived from it. [ ]: non-standard residue; d: D form. The star is where a group is joined. Hyp = O=C(O)[CH]1C[CH](O)CN1; Cbz = O=C(OCc1ccccc1)*
How the values were obtained:
Assay in all cases: NCI-60 cell line screen, 48 h
RPMI-8226 leukemia = test system: RPMI-8226 leukemia
HOP-62 NSCLC = test system: HOP-62 NSCLC
HOP-92 NSCLC = test system: HOP-92 NSCLC
SK-MEL-28 melanoma = test system: SK-MEL-28 melanoma
SN12C renal = test system: SN12C renal
TK-10 renal = test system: TK-10 renal
HS 578T breast = test system: HS 578T breast
ACHN renal = test system: ACHN renal
OVCAR-8 ovarian = test system: OVCAR-8 ovarian
MDA-N = test system: MDA-N
CCRF-CEM leukemia = test system: CCRF-CEM leukemia
HCT-15 colon = test system: HCT-15 colon
OVCAR-4 ovarian = test system: OVCAR-4 ovarian
PC-3 prostate = test system: PC-3 prostate
MDA-MB-231 breast = test system: MDA-MB-231 breast
OVCAR-5 ovarian = test system: OVCAR-5 ovarian
CAKI-1 renal = test system: CAKI-1 renal

Row | SMILES | TGI (RPMI-8226 leukemia) | TGI (HOP-62 NSCLC) | TGI (HOP-92 NSCLC) | TGI (SK-MEL-28 melanoma) | TGI (SN12C renal) | TGI (TK-10 renal) | TGI (HS 578T breast) | TGI (ACHN renal) | TGI (OVCAR-8 ovarian) | TGI (MDA-N) | TGI (CCRF-CEM leukemia) | TGI (HCT-15 colon) | TGI (OVCAR-4 ovarian) | TGI (PC-3 prostate) | TGI (MDA-MB-231 breast) | TGI (OVCAR-5 ovarian) | TGI (CAKI-1 renal) | GI50 (HOP-62 NSCLC) | GI50 (MDA-MB-231 breast)
1 | CC(O)/C=C/C1OC(=O)CC1Nc1ccc(C=O)cc1 (stereo not given) | 90.9 µM | 77.4 µM | 66.5 µM | > 100 µM | > 100 µM | > 100 µM | > 100 µM | > 100 µM | > 100 µM | > 100 µM | > 100 µM | > 100 µM | > 100 µM | > 100 µM | > 100 µM | > 100 µM |  |  | 
2 | O=C(Cc1ccccc1)Nc1nc2ccc(Cl)cc2c2nc(-c3ccco3)nn12 | > 100 µM | > 62.4 µM | 57.1 µM | > 100 µM | > 100 µM | > 75.3 µM | > 100 µM | > 100 µM | > 100 µM | > 100 µM | > 100 µM | > 100 µM |  | > 100 µM | > 100 µM | > 100 µM | > 100 µM |  | 
3 | NC(=O)CNC(=O)C1CC(O)CN1C(=O)C1CCCN1C(=O)OCc1ccccc1 (stereo not drawn) (Cbz-Pro-[Hyp]-Gly-NH2; configuration not given here) | > 100 µM | > 100 µM |  | > 100 µM | > 100 µM | > 100 µM | > 100 µM | > 100 µM | > 100 µM | > 100 µM | > 100 µM | > 100 µM | > 100 µM | > 100 µM | > 100 µM | > 100 µM |  |  | 
4 | O=c1[nH]nc(Cc2ccc(Cl)cc2)n1CCO | > 100 µM |  | > 100 µM | > 100 µM | > 100 µM | > 100 µM | > 100 µM | > 100 µM | > 100 µM | > 100 µM |  | > 100 µM | > 100 µM | > 100 µM | > 100 µM | > 100 µM | > 100 µM |  | 
5 | Cc1[nH]c2[nH]c(=S)nc(NC(N)=S)c2c1Cc1ccccc1 | 55.3 µM | > 100 µM | > 100 µM | 48.6 µM | > 100 µM | > 100 µM | 60.6 µM | > 100 µM | > 100 µM | 69.1 µM | > 100 µM | > 100 µM |  | > 100 µM | > 100 µM | > 100 µM | > 100 µM |  | 
6 | CN(C)c1ccc(/C=C2\C[C@H]3[C@@H]4CC=C5C[C@@H](O)CC[C@]5(C)[C@H]4CC[C@]3(C)[C@H]2O)cc1 | > 100 µM | > 100 µM |  | 44.9 µM | 40 µM | 33.7 µM | 50.8 µM | 30.7 µM | 13.1 µM | 56.9 µM |  | 39.7 µM | 98.6 µM | 25.8 µM | 34.5 µM | 36.2 µM |  |  | 
7 | CCOC(=O)/C=C/C1=C(Br)[C@@]2(C)CC[C@@H]3c4ccc(O)cc4CC[C@H]3[C@@H]2C1 | 6.6 µM | 27.5 µM | 23.8 µM | 30 µM | 26.5 µM | 31.7 µM | 28.9 µM | 29.1 µM |  | 26.7 µM | 32.3 µM | 24.4 µM | 27.7 µM | 28.5 µM |  | 28.5 µM | 30 µM |  | 
8 | CC(=O)OC1OC(C2c3cccc(O)c3C(=O)c3c(O)cc(CO)cc32)C(O)C(O)C1O (stereo not given) |  | 11.6 µM and 18.5 µM | 9.38 µM | 9.63 µM | 24.3 µM and 17.9 µM | 19.4 µM and 22.4 µM | 7.38 µM and 7.12 µM |  | 69.3 µM and > 100 µM | 13.5 µM and 8.28 µM | 21.5 µM and 17.9 µM | 9.33 µM and 11.2 µM | > 100 µM | 10.5 µM and 12.4 µM | 7.54 µM and 8.88 µM | 11.7 µM and 18.1 µM | 7.51 µM and 7.82 µM | 2.38 µM and 5.03 µM | 1.51 µM and 3.4 µM
9 | CC(=O)O[C@H]1C(=O)[C@@]2(C)[C@H]([C@H](OC(=O)c3ccccc3)[C@]3(O)C[C@H](OC(=O)[C@H](O)[C@@H](NC(=O)C(C)(O)C(C)O)c4ccccc4)C(C)=C1C3(C)C)[C@]1(OC(C)=O)CO[C@@H]1C[C@@H]2O (stereo not given in full) | > 16.6 µM | 5.21 µM |  | > 50 µM | > 50 µM | > 50 µM | 0.737 µM | > 50 µM | > 50 µM | 0.0744 µM | > 50 µM | > 50 µM | > 50 µM | > 50 µM | 43.1 µM | 4.65 µM | > 50 µM |  | 
10 | CC(=S)NC=C(C(N)=O)C(N)=O | > 100 µM | > 100 µM | > 100 µM | > 100 µM | > 100 µM |  | > 100 µM | > 100 µM | > 100 µM | > 100 µM | > 100 µM | > 100 µM |  | > 100 µM | > 100 µM | > 100 µM | > 100 µM |  | 
11 | N#CC(C#N)[C@@H]1CCC=C(Sc2ccccc2)[C@H]1Sc1ccccc1 |  | 15.6 µM | 13.7 µM | 7.57 µM | 12.5 µM | 4.59 µM | 26.6 µM | 6.07 µM | 9.37 µM | 4.41 µM | 7.26 µM | 5.66 µM | 17.2 µM | 17.4 µM | 11.6 µM | 20.3 µM | 8.29 µM |  | 
12 | O=C(c1ccccc1)N1CCC(Nc2cccnc2)O1 (stereo not given) |  | > 100 µM | > 100 µM | > 100 µM | > 100 µM | > 100 µM | > 100 µM | > 100 µM | > 100 µM | > 100 µM | > 100 µM | > 100 µM |  | > 100 µM | > 100 µM | > 100 µM |  |  | 
13 | N#Cc1n[nH]n(-c2ccccc2)c1=O | > 100 µM | > 100 µM |  | > 100 µM | > 100 µM | > 100 µM | > 100 µM | > 100 µM | > 100 µM | > 100 µM |  | > 100 µM | > 100 µM | > 100 µM | > 100 µM | > 100 µM | > 100 µM |  | 
14 | CCOC1Oc2ccccc2-c2nc(N)ncc21 (stereo not given) | > 100 µM |  | > 100 µM |  | > 100 µM | > 100 µM | > 100 µM | > 100 µM | > 100 µM | > 100 µM | > 100 µM | > 100 µM | > 100 µM | > 100 µM | > 100 µM | > 100 µM | > 100 µM |  | 
